“Also recorded” adds a separate entry of the source. Like-named read-outs stand apart in the source and are kept apart here.
How the values were obtained:
Lewis lung carcinoma = test: Antitumor activity in Lewis lung carcinoma bearing mice; conditions: for Drug death: deaths/animals; for Tumor Log10 cell kill: [(T − C)/3.32] × Td, Td 2.2 days
Description: Animal body weights included the tumor weights.
The percent T/C value is calculated as follows:

human cancer cell lines = test: Cytotoxicity on the whole panel of human cancer cell lines (MTS); type: cell-based; conditions: all human cancer cell lines of Table 2; read-out: IC50 values, range over all cell lines
KB = test: Cytotoxicity assay for human cancer cells (MTS); type: cell-based; conditions: KB epidermoid carcinoma, 72 h, read-out: IC 50 value
Description: (§1) Human cells were grown in DMEM medium supplemented with 10% fetal calf serum (Invitrogen), in the presence of penicillin, streptomycin and amphotericin B (Fungizone) in 75 cm^2 flask under 5% CO2. Cells were plated in 96-well tissue culture microplates at a density of 650 cells/well in 200 μl medium and treated 24 h later with the compound dissolved in DMSO at concentrations ranging from 0.5-10 μM applied using an automated benchstation (Beckman Biomek 3000). Controls received the same volume of DMSO as the test wells (1% final concentration). After a 72 h exposure time, MTS reagent (Promega) was added and incubated for 3 h at 37° C. and the absorbance was read at 490 nm. Results are expressed as the inhibition of cell proliferation calculated as the ratio [(OD490 treated/OD490 control)×100].

U87 = test: Cytotoxicity assay for human cancer cells (MTS); type: cell-based; conditions: U-87 MG, U87 brain glioblastoma, astrocytoma, 72 h, read-out: IC 50 value
Description: as §1

PC3 = test: Cytotoxicity assay for human cancer cells (MTS); type: cell-based
Description: as §1

A2780 = test: Cytotoxicity assay for human cancer cells (MTS); type: cell-based; conditions: A2780 ovarian carcinoma, 72 h, read-out: IC 50 value
Description: as §1

MCF7R = test: Cytotoxicity assay for human cancer cells (MTS); type: cell-based; conditions: MCF7R breast ER+ (multidrug resistant), 72 h, read-out: IC 50 value
Description: as §1

OVCAR8 = test: Cytotoxicity assay for human cancer cells (MTS); type: cell-based; conditions: OVCAR-8, OVCAR8 ovarian adenocarcinoma, 72 h, read-out: IC 50 value
Description: as §1

A2780cis = test: Cytotoxicity assay for human cancer cells (MTS); type: cell-based; conditions: A2780cis ovarian carcinoma-cisplatin resistant, 72 h, read-out: IC 50 value
Description: as §1

MCF7 = test: Cytotoxicity assay for human cancer cells (MTS); type: cell-based; conditions: MCF7 breast ER+ (hormone dependent), 72 h, read-out: IC 50 value
Description: as §1

SK-OV3 = test: Cytotoxicity assay for human cancer cells (MTS); type: cell-based; conditions: SK-OV-3, SK-OV3 ovarian adenocarcinoma, 72 h, read-out: IC 50 value
Description: as §1

MDA435 = test: Cytotoxicity assay for human cancer cells (MTS); type: cell-based; conditions: MDA435 breast ER− (highly metastatic to lungs), 72 h, read-out: IC 50 value
Description: as §1

A549 = test: Cytotoxicity assay for human cancer cells (MTS); type: cell-based; conditions: A549 lung carcinoma, 72 h, read-out: IC 50 value
Description: as §1

EPC = test: Cytotoxicity assay for human cancer cells (MTS); type: cell-based
Description: as §1

HL60 = test: Cytotoxicity assay for human cancer cells (MTS); type: cell-based; conditions: HL-60, HL60 acute promyelocytic leukemia, 72 h, read-out: IC 50 value
Description: as §1

HT29 = test: Cytotoxicity assay for human cancer cells (MTS); type: cell-based; conditions: HT-29, HT29 colorectal adenocarcinoma, 72 h, read-out: IC 50 value
Description: as §1

LnaCap = test: Cytotoxicity assay for human cancer cells (MTS); type: cell-based
Description: as §1

HepG2 = test: Cytotoxicity assay for human cancer cells (MTS); type: cell-based; conditions: HepG2 hepatocellular carcinoma, 72 h, read-out: IC 50 value
Description: as §1

MDA231 = test: Cytotoxicity assay for human cancer cells (MTS); type: cell-based; conditions: MDA-MB-231, MDA231 breast ER− (hormone independent), 72 h, read-out: IC 50 value
Description: as §1

HL60R = test: Cytotoxicity assay for human cancer cells (MTS); type: cell-based; conditions: HL60R acute promyelocytic leukemia-multidrug resistant, 72 h, read-out: IC 50 value
Description: as §1

HCT116 = test: Cytotoxicity assay for human cancer cells (MTS); type: cell-based; conditions: HCT-116, HCT116 colorectal carcinoma, 72 h, read-out: IC 50 value
Description: as §1

HCT15 = test: Cytotoxicity assay for human cancer cells (MTS); type: cell-based; conditions: HCT-15, HCT15 colon adenocarcinoma, 72 h, read-out: IC 50 value
Description: as §1

MIA PaCa-2 = test: Cytotoxicity assay for human cancer cells (MTS); type: cell-based; conditions: MIA PaCa-2 pancreatic carcinoma, 72 h, read-out: IC 50 value
Description: as §1

U937 = test: Cytotoxicity assay for human cancer cells (MTS); type: cell-based; conditions: U-937, U937 histiocytic lymphoma, 72 h, read-out: IC 50 value
Description: as §1

SF268 = test: Cytotoxicity assay for human cancer cells (MTS); type: cell-based; conditions: SF-268, SF268 brain glioma, 72 h, read-out: IC 50 value
Description: as §1

K562 = test: Cytotoxicity assay for human cancer cells (MTS); type: cell-based; conditions: K562 chronic myelogenous leukemia, 72 h, read-out: IC 50 value
Description: as §1

[1] = 50 mg/kg i.p. days 4-8 and 11-15
[2] = 55 mg/kg i.p. days 4-8 and 11-15
[3] = 55 mg/kg i.p. days 4-8 and 11-15, hydrochloride

In the case of `COc1cc(Nc2c3c(nc4cc5c(cc24)OCO5)CCCC3=O)cc(OC)c1OC.Cl` [SGR307.HCl, 6,7-(Methylenedioxy)-9-(3,4,5-trimethoxyphenylamino)-3,4-dihydroacridin-1(2H)-one, hydrochloride], the “T − C (day), tumor growth delay” value (Lewis lung carcinoma; [1]) is reported as 4.5 days, the “Time for median tumor to reach 500 mm^3” value (Lewis lung carcinoma; [1]) is reported as 14.1 days and the “T/C day 18 (%)” value (Lewis lung carcinoma; [1]) is reported as 36.2%. For the same compound, the “Mean tumor volume (mm^3) on day 18 (range)” value (Lewis lung carcinoma; 50 mg/kg i.p. days 4-8 and 11-15, range 297-2230) was 1158 mm^3, the Drug death (Lewis lung carcinoma; [1]) was 0/5 and the “Note (activity / toxicity assessment)” value (Lewis lung carcinoma; 50 mg/kg i.p. days 4-8 and 11-15, hydrochloride) was “not toxic; also recorded: highly active”. For the same compound, the “Mean body wt change [g/mouse (day of nadir)]” value (Lewis lung carcinoma; 50 mg/kg i.p. days 4-8 and 11-15, nadir d6) was −0.5 (d6) g/mouse, the “Tumor Log10 cell kill” value (Lewis lung carcinoma; 50 mg/kg i.p., hydrochloride) was 3 and the “Time for median tumor to reach 500 mm^3” value (Lewis lung carcinoma; [2]) was 17.4 days. The “T/C day 18 (%)” value (Lewis lung carcinoma; [2]) was 19.3%, the “Mean tumor volume (mm^3) on day 18 (range)” value (Lewis lung carcinoma; 55 mg/kg i.p. days 4-8 and 11-15, range 457-806) was 619 mm^3 and the Drug death (Lewis lung carcinoma; [2]) was 0/5. The “Note (activity / toxicity assessment)” value (Lewis lung carcinoma; [3]) was “not toxic; also recorded: highly active”, the “T − C (day), tumor growth delay” value (Lewis lung carcinoma; [3]) was 7.8 days and the “Mean body wt change [g/mouse (day of nadir)]” value (Lewis lung carcinoma; 55 mg/kg i.p. days 4-8 and 11-15, nadir d8) was −2.4 (d8) g/mouse. For the same compound, the “Tumor Log10 cell kill” value (Lewis lung carcinoma; 55 mg/kg i.p.) was 5.2, the IC50 (human cancer cell lines) was 30 to 380 nM and the IC50 (KB) was 111 nM. It also gave an IC50 (U87) of 126 nM, an IC50 (PC3; PC-3, PC3 androgen-independent prostate adenocarcinoma, value of running text, read-out: IC50) of 120 to 130 nM and an IC50 (PC3; PC-3, PC3 prostate adenocarcinoma (androgen independent), 72 h, MTS, read-out: IC 50 value) of 98 nM. It also gave an IC50 (A2780) of 99 nM, an IC50 (MCF7R) of 121 nM and an IC50 (OVCAR8) of 138 nM. The IC50 (A2780cis) was 109 nM, the IC50 (MCF7) was 76 nM and the IC50 (SK-OV3) was 112 nM. It also gave an IC50 (MDA435) of 124 nM, an IC50 (A549) of 158 nM and an IC50 (EPC; Homo sapiens, 72 h, EPC epithelioma (quiescent cell line), 72 h, MTS, read-out: IC 50 value) of 237 nM. For the same compound, the IC50 (EPC; Homo sapiens, quiescent cell line EPC, values of running text, read-out: IC50 values) was 310 nM, the IC50 (EPC; quiescent cell line EPC, values of running text, hydrochloride, read-out: IC50 values) was 360 nM and the IC50 (HL60) was 90 nM. It also gave an IC50 (HT29) of 129 nM, an IC50 (LnaCap; LnaCap androgen-dependent prostate adenocarcinoma, value of running text, read-out: IC50) of 330 to 380 nM and an IC50 (LnaCap; LnaCap prostate adenocarcinoma (androgen dependent), 72 h, MTS, read-out: IC 50 value) of 103 nM. The IC50 (HepG2) was 139 nM, the IC50 (MDA231) was 79 nM and the IC50 (HL60R) was 164 nM. The IC50 (HCT116) was 68 nM, the IC50 (HCT15) was 91 nM and the IC50 (MIA PaCa-2) was 109 nM. It also gave an IC50 (U937) of 121 nM, an IC50 (SF268) of 150 nM and an IC50 (K562) of 83 nM.

Source: patent US9783547B2, “Water soluble 4-azapodophyllotoxin analogs” (CENTRE NATIONAL DE LA RECHERCHE SCIENTIFIQUE (CNRS), priority 2014, dated 2017)
